From publication PMC10759558 (European journal of medicinal chemistry, 2023)

Tested on: HIVLAI
Assay: Antiviral activity in MT-2 human-T-lymphoid cells exposed to HIVLAI
Format: cell-based, HIV-1
Details: for antiviral activity (in words): MT-2 cells exposed to HIVLAI

SMILES | fold reduction in antiviral activity over compound 5c (MT-2 cells, HIVLAI, compared with 5c) | antiviral activity (in words)
Cc1ccc(C(=O)N[C@@H](Cc2cc(F)cc(F)c2)[C@H](O)CN(CC(C)C)S(=O)(=O)c2ccc(N)cc2)cc1Nc1nccc(-c2cccnc2)n1 [5d, N-((2S,3R)-4-((4-amino-N-isobutylphenyl)sulfonamido)-1-(3,5-difluorophenyl)-3-hydroxybutan-2-yl)-4-methyl-3-((4-(pyridin-3-yl)pyrimidin-2-yl)amino)benzamide] | 3 fold | –
COc1ccc(S(=O)(=O)N(CC(C)C)C[C@@H](O)[C@H](Cc2ccccc2)NC(=O)c2cccc(Nc3nc(-c4cccnc4)cs3)c2C)cc1 [5f, N-((2S,3R)-3-hydroxy-4-((N-isobutyl-4-methoxyphenyl)sulfonamido)-1-phenylbutan-2-yl)-2-methyl-3-((4-(pyridin-3-yl)thiazol-2-yl)amino)benzamide] | – | did not exhibit any appreciable antiviral activity
COc1ccc(S(=O)(=O)N(CC(C)C)C[C@@H](O)[C@H](Cc2ccccc2)NC(=O)c2ccc(C)c(Nc3nc(C)cs3)c2)cc1 [5j, N-((2S,3R)-3-hydroxy-4-((N-isobutyl-4-methoxyphenyl)sulfonamido)-1-phenylbutan-2-yl)-4-methyl-3-((4-methylthiazol-2-yl)amino)benzamide] | – | did not show any appreciable antiviral activity
